Laboratory results published in patent US20220306647A1, “NOVEL INDOLE-2-CARBOXAMIDES ACTIVE AGAINST THE HEPATITUS B VIRUS (HBV)” (AICURIS GMBH & CO. KG, priority 2019, published 2022).
Where two headings read alike, the source gives them in different places.

Key:
[1] = biological target: T1, HBV core protein (C-terminal truncated core protein, 149 amino acids of the N-terminal assembly domain, BODIPY-FL labelled) (UniProt P03146); experiment: Biochemical capsid assembly assay (fluorescence quenching)
T1 construct: fused on or other part: A single cysteine added after residue 149, at position 150; It carries the BODIPY-FL maleimide label
T1 sequence (P03146 whole entry, the tested form may be a part): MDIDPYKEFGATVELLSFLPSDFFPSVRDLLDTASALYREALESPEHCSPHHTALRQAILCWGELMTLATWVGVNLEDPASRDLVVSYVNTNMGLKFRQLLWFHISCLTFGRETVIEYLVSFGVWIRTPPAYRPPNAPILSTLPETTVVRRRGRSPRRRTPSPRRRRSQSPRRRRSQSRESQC
Method in brief: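 Fluorescence quenching of BODIPY-FL-labelled core dimers (1.0 to 2.0 μM) in 50 mM HEPES pH 7.5; compounds at 8 concentrations, 0.5 log-unit dilutions from top 100, 31.6 or 10 μM, 0.5% DMSO. Assembly started with NaCl to […]; fluorescence (ex 477/em 525 nm) read after 6 min. EC50 by non-linear regression.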

HBV (HepAD38 cells) = experiment: HBV replication assay: determination of HBV DNA from the supernatants of HepAD38 cells; format: cell-based; settings: Hepatitis B virus, 144 h, HBV DNA in HepAD38 supernatant at day 6, qPCR, read-out: Cell activity
Procedure: Determination of HBV DNA from the Supernatants of HepAD38 Cells
The anti-HBV activity was analysed in the stable transfected cell line HepAD38, which has been described to secrete high levels of HBV virion particles (Ladner et al., 1997). In brief, HepAD38 cells were cultured at 37° C. at 5% CO2 and 95% humidity in 200 μl maintenance medium, which was Dulbecco's modified Eagle's medium/Nutrient Mixture F-12 (Gibco, Karlsruhe), 10% fetal bovine serum (PAN Biotech Aidenbach) supplemented with 50 μg/ml penicillin/streptomycin (Gibco, Karlsruhe), 2 mM L-glutamine (PAN Biotech, Aidenbach), 400 μg/ml G418 (AppliChem, Darmstadt) and 0.3 μg/ml tetracycline. Cells were subcultured once a week in a 1:5 ratio, but were usually not passaged more than ten times. For the assay 60,000 cells were seeded in maintenance medium without any tetracycline into each well of a 96-well plate and treated with serial half-log dilutions of test compound. To minimize edge effects the outer 36 wells of the plate were not used but were filled with assay medium. On each assay plate six wells for the virus control (untreated HepAD38 cells) and six wells for the cell control (HepAD38 cells treated with 0.3 μg/ml tetracycline) were allocated, respectively. In addition, one plate set with reference inhibitors like BAY 41-4109, entecavir, and lamivudine instead of screening compounds were prepared in each experiment. In general, experiments were performed thrice in triplicates. At day 6 HBV DNA from 100 μl filtrated cell culture supernatant (AcroPrep Advance 96 Filter Plate, […] Supor membran, PALL GmbH, Dreieich) was automatically purified on the MagNa Pure LC instrument using the MagNA Pure 96 DNA and Viral NA Small Volume Kit (Roche Diagnostics, Mannheim) according to the instructions of the manufacturer. EC50 values were calculated from relative copy numbers of HBV DNA In brief, 5 μl of the 100 μl eluate containing HBV DNA were subjected to PCR LC480 Probes Master Kit (Roche) together with 1 μM antisense primer […], 0.5 μM sense primer […], 0.3 μM hybprobes […]-FL and LC640-[…]-PH (TIBMolBiol, Berlin) to a final volume of 12.5 μl. The PCR was performed on the Light Cycler 480 real time system (Roche Diagnostics, Mannheim) using the following protocol: Pre-incubation for 1 min at 95° C., amplification: 40 cycles×(10 sec at 95° C., 50 sec at 60° C., 1 sec at 70° C.), cooling for 10 sec at 40° C. Viral load was quantitated against known standards using HBV plasmid DNA of pCH-9/3091 (Nassal et al., 1990, Cell 63: 1357-1363) and the LightCycler 480 SW 1.5 software (Roche Diagnostics, Mannheim) and EC50 values were calculated using non-linear regression with GraphPad Prism 6 (GraphPad Software Inc., La Jolla, USA).

[2] = assembly started with NaCl, fluorescence read after 6 min, read-out: Assembly activity
[3] = read-out: Assembly activity, assembly started with NaCl, fluorescence read after 6 min

Row | SMILES | IC50 [1, 2] | EC50 (HBV (HepAD38 cells)) | IC50 [1, 3]
1 | CN1C(=O)c2c3c(nn2CC12CC2)CCN(C(=O)c1cc2c(Cl)cccc2[nH]1)C3 [Example 17, 12′-(4-chloro-1H-indole-2-carbonyl)-4′-methyl-4′,7′,8′,12′-tetraazaspiro[cyclopropane-1,5′-tricyclo[7.4.0.0^2′7]tridecane]-1′,8′-dien-3′-one] | < 5 µM | < 1 µM | 
2 | Cc1c(F)ccc2[nH]c(C(=O)N3CCc4nn5c(c4C3)C(=O)N(C)C3(CC3)C5)cc12 [Example 18, 12′-(5-fluoro-4-methyl-1H-indole-2-carbonyl)-4′-methyl-4′,7′,8′,12′-tetraazaspiro[cyclopropane-1,5′-tricyclo[7.4.0.0^2′7]tridecane]-1′,8′-dien-3′-one] | < 5 µM | < 1 µM | 
3 | CN(CCO)C(=O)c1noc2c1CN(C(=O)c1cc3c(Cl)cccc3[nH]1)CC2 [Example 21, 5-(4-chloro-1H-indole-2-carbonyl)-N-(2-hydroxyethyl)-N-methyl-4H,5H,6H,7H-[1,2]oxazolo[4,5-c]pyridine-3-carboxamide] | < 5 µM | < 1 µM | 
4 | CN(CCO)C(=O)c1noc2c1CN(C(=O)c1cc3ccccc3[nH]1)CC2 [Example 22, N-(2-hydroxyethyl)-5-(1H-indole-2-carbonyl)-N-methyl-4H,5H,6H,7H-[1,2]oxazolo[4,5-c]pyridine-3-carboxamide] | < 5 µM | < 1 µM | 
5 | CN(CCO)C(=O)c1noc2c1CN(C(=O)c1cc3c(F)cc(F)cc3[nH]1)CC2 [Example 23, 5-(4,6-difluoro-1H-indole-2-carbonyl)-N-(2-hydroxyethyl)-N-methyl-4H,5H,6H,7H-[1,2]oxazolo[4,5-c]pyridine-3-carboxamide] | < 5 µM | < 1 µM | 
6 | CN(Cc1ccccc1C(=O)O)C(=O)c1[nH]nc2c1CN(C(=O)c1cc3ccccc3[nH]1)CC2 [Example 24, 2-({1-[5-(1H-indole-2-carbonyl)-2H,4H,5H,6H,7H-pyrazolo[4,3-c]pyridin-3-yl]-N-methylformamido}methyl)benzoic acid] | < 5 µM | 1 to 10 µM | 
7 | CN(Cc1ccccn1)C(=O)c1noc2c1CN(C(=O)c1cc3ccccc3[nH]1)CC2 [Example 26, 5-(1H-indole-2-carbonyl)-N-methyl-N-[(pyridin-2-yl)methyl]-4H,5H,6H,7H-[1,2]oxazolo[4,5-c]pyridine-3-carboxamide] | < 5 µM | 1 to 10 µM | 
8 | CN(C(=O)c1cnn2c1CN(C(=O)c1cc3ccccc3[nH]1)CC2)C1(c2ccccc2C(=O)O)CC1 [Example 30, 2-{1-[N-methyl-5-(1H-indole-2-carbonyl)-4H,5H,6H,7H-pyrazolo[1,5-a]pyrazine-3-amido]cyclopropyl}benzoic acid] | < 5 µM | 1 to 10 µM | 
9 | CN(C(=O)c1cnn2c1CN(C(=O)c1cc3ccccc3[nH]1)CC2)C1(c2ccc(C(=O)O)cn2)CC1 [Example 31, 6-{1-[N-methyl-5-(1H-indole-2-carbonyl)-4H,5H,6H,7H-pyrazolo[1,5-a]pyrazine-3-amido]cyclopropyl}pyridine-3-carboxylic acid] | < 5 µM | < 100 µM | 
10 | CN(C(=O)c1cnn2c1CN(C(=O)c1cc3cc(F)c(Cl)cc3[nH]1)CC2)C1(c2cccc(C(=O)O)c2)CC1 [Example 33, 3-{1-[N-methyl-5-(6-chloro-5-fluoro-1H-indole-2-carbonyl)-4H,5H,6H,7H-pyrazolo[1,5-a]pyrazine-3-amido]cyclopropyl}benzoic acid] | < 5 µM | < 1 µM | 
11 | CN(C(=O)c1cnn2c1CN(C(=O)c1cc3ccccc3[nH]1)CC2)C1(Cc2ccc(C(=O)O)cc2)CC1 [Example 34, 4-({1-[N-methyl-5-(1H-indole-2-carbonyl)-4H,5H,6H,7H-pyrazolo[1,5-a]pyrazine-3-amido]cyclopropyl}methyl)benzoic acid] | < 5 µM | 1 to 10 µM | 
12 | Cc1c(F)ccc2[nH]c(C(=O)N3CCn4ncc(C(=O)N(C)C5(c6cccc(C(=O)O)c6)CC5)c4C3)cc12 [Example 35, 3-{1-[N-methyl-5-(5-fluoro-4-methyl-1H-indole-2-carbonyl)-4H,5H,6H,7H-pyrazolo[1,5-a]pyrazine-3-amido]cyclopropyl}benzoic acid] |  | < 1 µM | < 5 µM
13 | CN1C(=O)c2c3c(nn2CC12CC2)CCN(C(=O)c1cc2c(F)cccc2[nH]1)C3 [Example 37, 12′-(4-fluoro-1H-indole-2-carbonyl)-4′-methyl-4′,7′,8′,12′-tetraazaspiro[cyclopropane-1,5′-tricyclo[7.4.0.0^2, □]tridecane]-1′,8′-dien-3′-one] |  | < 1 µM | < 5 µM
14 | COCC1(N(C)C(=O)c2onc3c2CN(C(=O)c2cc4ccccc4[nH]2)CC3)CC1 [Example 38, 5-(1H-indole-2-carbonyl)-N-[1-(methoxymethyl)cyclopropyl]-N-methyl-4H,5H,6H,7H-[1,2]oxazolo[4,3-c]pyridine-3-carboxamide] | < 5 µM | < 1 µM | 
15 | CN(C(=O)c1onc2c1CN(C(=O)c1cc3ccccc3[nH]1)CC2)C1CC1 [Example 39, N-cyclopropyl-5-(1H-indole-2-carbonyl)-N-methyl-4,5,6,7-tetrahydroisoxazolo[4,3-c]pyridine-3-carboxamide] |  | < 1 µM | < 5 µM
16 | C[C@@H](NC(=O)c1onc2c1CN(C(=O)c1cc3ccccc3[nH]1)CC2)C(F)(F)F [Example 40, 5-(1H-indole-2-carbonyl)-N-[(2R)-1,1,1-trifluoropropan-2-yl]-4H,5H,6H,7H-[1,2]oxazolo[4,3-c]pyridine-3-carboxamide] | < 5 µM | < 1 µM | 
17 | CC1Cn2cnc(C(=O)N(C)C3(c4cccc(C(=O)O)c4)CC3)c2CN1C(=O)c1cc2ccccc2[nH]1 (centres unmarked) [Example 41, 3-{1-[N-methyl-7-(1H-indole-2-carbonyl)-6-methyl-5H,6H,7H,8H-imidazo[1,5-a]pyrazine-1-amido]cyclopropyl}benzoic acid] |  | 1 to 10 µM | < 5 µM
18 | CN(C(=O)c1cnn2c1CN(C(=O)c1cc3c(F)c(F)ccc3[nH]1)CC2)C1(c2cccc(C(=O)O)c2)CC1 [Example 42, 3-{1-[N-methyl-5-(4,5-difluoro-1H-indole-2-carbonyl)-4H,5H,6H,7H-pyrazolo[1,5-a]pyrazine-3-amido]cyclopropyl}benzoic acid] | < 5 µM | 1 to 10 µM | 
19 | O=C1NC2(CC2)Cn2nc3c(c21)CN(C(=O)c1cc2ccccc2[nH]1)CC3 [Example 43, 12′-(1H-indole-2-carbonyl)-4′,7′,8′,12′-tetraazaspiro[cyclopropane-1,5′-tricyclo[7.4.0.0^2, D]tridecane]-1′,8′-dien-3′-one] |  | 1 to 10 µM | < 5 µM
20 | CN(C(=O)c1cnn2c1CN(C(=O)c1cc3c(Cl)cccc3[nH]1)CC2)C1(c2ncc(C(=O)O)cn2)CC1 [Example 45, 2-{1-[N-methyl-5-(4-chloro-1H-indole-2-carbonyl)-4H,5H,6H,7H-pyrazolo[1,5-a]pyrazine-3-amido]cyclopropyl}pyrimidine-5-carboxylic acid] | < 5 µM | 1 to 10 µM | 
21 | C[C@@H](NC(=O)c1noc2c1CN(C(=O)c1cc3ccccc3[nH]1)CC2)C(F)(F)F [Example 46, 5-(1H-indole-2-carbonyl)-N-[(2R)-1,1,1-trifluoropropan-2-yl]-4H,5H,6H,7H-[1,2]oxazolo[4,5-c]pyridine-3-carboxamide] |  | < 1 µM | < 5 µM
22 | CN(C(=O)c1cnn2c1CN(C(=O)c1cc3ccccc3[nH]1)CC2)C1(COc2ccc(C(=O)O)cc2)CC1 [Example 47, 4-({1-[N-methyl-5-(1H-indole-2-carbonyl)-4H,5H,6H,7H-pyrazolo[1,5-a]pyrazine-3-amido]cyclopropyl}methoxy)benzoic acid] | < 5 µM | < 1 µM | 
